Values of other authors in patent publication US20150010509A1 (priority 2012, published 2015).
Entries after “also recorded” stand apart in the source; their conditions may differ. Where two headings read alike, the source gives them in different places.

Legend:
[1] = tested on: human peripheral blood mononuclear cells (PBMC); conditions: cited from earlier work
[2] = molecular target: T1, IDO (indoleamine 2,3-dioxygenase) (Homo sapiens, UniProt P14902); conditions: cited from earlier work
T1 construct: freshly isolated human peripheral blood mononuclear cells (PBMC); endogenous in cells; host or cells: freshly isolated human PBMC stimulated with PHA or Con A

[3] = tested on: plasma cytokines, kynurenine, tryptophan; conditions: cited from earlier work
[4] = tested on: EMT6 mouse mammary tumor cells; conditions: CaPterin suspension 7 mg/kg/day oral, Balb/c mice, cited from earlier work
[5] = tested on: mammary gland adenocarcinomas; conditions: CaPterin suspension 7 mg/kg/day, oral gavage, seven days; C3H/HeN-MTV+ female mice; cited from earlier work
[6] = tested on: MDA-MB-231 human breast cancer cells; conditions: SCID mice, cited from earlier work
[7] = tested on: MDA-MB-231 human breast cancer cells; conditions: cited from earlier work
[8] = tested on: human peripheral blood mononuclear cells (PBMC); conditions: at the concentrations tested; cited from earlier work
hepatitis B virus (HBV) = conditions: cited from earlier work
[9] = tested on: serum kyn/trp, MCP-1, GM-CSF; conditions: DCP per os 14 days; regression p=0.001; cited from earlier work
M. bovis BCG = conditions: cited from earlier work
[10] = tested on: MIP-1β, inducible nitric oxide synthase 2, IDO gene expression; conditions: infected human monocytes; cited from earlier work
[11] = cited from earlier work
[12] = Unstimulated PBMC + 200 μg/ml CaPterin
[13] = stepwise regression on CaPterin dose, p=0.047

T1 sequence (P14902 whole entry): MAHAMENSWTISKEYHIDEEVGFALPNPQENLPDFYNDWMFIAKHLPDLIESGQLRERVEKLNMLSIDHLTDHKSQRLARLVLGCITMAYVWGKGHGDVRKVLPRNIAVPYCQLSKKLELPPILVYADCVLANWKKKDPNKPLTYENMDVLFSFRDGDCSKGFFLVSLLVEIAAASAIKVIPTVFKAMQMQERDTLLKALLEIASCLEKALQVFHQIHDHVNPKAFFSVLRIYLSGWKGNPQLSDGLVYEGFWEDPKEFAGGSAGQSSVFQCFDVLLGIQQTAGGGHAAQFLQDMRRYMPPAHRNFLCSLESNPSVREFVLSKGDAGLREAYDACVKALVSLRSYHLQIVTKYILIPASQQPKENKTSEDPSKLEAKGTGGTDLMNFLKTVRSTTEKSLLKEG

**Q.** What does the source list for `Nc1nc2c3c(ncc[n+]3[Ca][O]2)n1`?
**A.** neopterin excretion ([1]; PBMC): suppressed; Neopterin [1, 12]: did not influence this level; Kynurenine decrease ([2]; PBMC + Con A + CaPterin): ≦100-fold; Tryptophan ([2]; PBMC + Con A + CaPterin): 17.7 µM; Kynurenine decrease ([2]; PBMC + PHA + CaPterin): ≦100-fold; Tryptophan ([2]; PBMC + PHA + CaPterin): 17.7 µM; Kynurenine [2, 12]: did not significantly affect; Kynurenine/Tryptophan [2, 12]: lower; Tryptophan [2, 12]: did not significantly affect; IDO activity / stimulation-induced tryptophan degradation ([2]; mitogen-stimulated PBMC): suppressed stimulation-induced tryptophan degradation in a dose-dependent manner; plasma IFN-γ [3, 13]: decreases; plasma IL-6 [3, 13]: decreases; plasma IL-10 [3, 13]: increases; plasma kynurenine ([3]; stepwise regression on CaPterin dose, p=0.047, confounded by tumor shrinkage): increases; animal toxicity determined by decreased body weight ([4]; 15 days): no measurable animal toxicity; effect on tumor growth ([4]; once daily 15 days): no significant effect on tumor growth; ratio of Test tumor volumes to Control tumor volumes (T/C) at Day 7 [5]: 10%; antitumor efficacy ([6]; 13, 20 and 26 mg/kg CaPterin, oral gavage Monday through Friday for 75 days): no antitumor efficacy; toxicity ([6]; CaPterin suspension over 75 days): no measurable toxicity; T/C ([7]; CaPterin 21 mg/(kg day), after 60 days of treatment, 5×10^6 cells, nude mice): 37%; T/C after 14 days ([7]; CaPterin suspension 7 mg/kg/day, oral gavage once daily 14 days, 5×10^6 cells, nude mice): 41%; treatment toxicity assessed by reductions in body weight ([7]; CaPterin suspension 7 mg/kg/day, oral gavage, 14 days, nude mice): No treatment toxicity; toxicity (appreciable weight loss ≧10%) ([7]; mega-dosed by oral gavage 100 mg/(kg day) for up to 31 days): no observed toxicity; toxicity by exclusion method [8]: no toxicity

**Q.** For `Nc1nc2nccnc2c(=O)[nH]1.[Ca]` [(1:2 mol/mol) calcium pterin, calcium pterin], which T/C ([7]; (1:2 mol/mol) calcium pterin 25 mg/(kg day), 10×10^6 cells, 70-98 days of treatment) is on record?
**A.** 25%

**Q.** With `O.O.[Ca+2].[Cl-].[Cl-]` [Calcium chloride dihydrate, calcium chloride dihydrate] as the compound, how does the T/C ([7]; calcium chloride dihydrate 4.2 mg/(kg day), 10×10^6 cells, 70-98 days of treatment) read?
**A.** 25%

**Q.** For `Nc1nc([O-])c2nccnc2n1.Nc1nc([O-])c2nccnc2n1.[Ca+2]` [DCP, dipterinyl calcium pentahydrate], which “tumor growth relation to plasma cytokines (DCP/APCP regression)” value ([3]; DCP treated mice, regression p=0.003) is on record?
**A.** decreases with IL-12 and IL-4, and increases with IL-6

**Q.** And the “inhibition of liver HBV DNA” value (hepatitis B virus (HBV); DCP 23 mg/(kg d) per os, 14 days)?
**A.** 83%

**Q.** What about the “liver HBV DNA measured by PCR” value (hepatitis B virus (HBV); DCP per os once daily 14 days, 2.3 to 23 mg/(kg d), female HBV mice) of the same compound?
**A.** significant dose-response reduction; also recorded: decreased

**Q.** And the “IDO activity, serum kyn/trp” value [9]?
**A.** decreased

**Q.** And the “chemokine MCP-1” value [9]?
**A.** reduced

**Q.** What about the “serum GM-CSF” value [9] of the same compound?
**A.** increased

**Q.** What about the “viability of intracellular M. bovis BCG” value (M. bovis BCG; DCP treatment of infected human monocytes) of the same compound?
**A.** significant reduction

**Q.** And the “viability of extracellular M. bovis BCG” value (M. bovis BCG; DCP treatment)?
**A.** not extracellular

**Q.** And the “C-C chemokine MIP-1β” value [10]?
**A.** induction

**Q.** What about the IDO gene expression [10] of the same compound?
**A.** suppressed

**Q.** And the “inducible nitric oxide synthase 2” value [10]?
**A.** induction

**Q.** What about the “reduction of OGTT/AUC (area under OGTT curve)” value ([11]; 7 mg/(kg d) DCP orally in 0.4% carboxymethylcellulose, 21 days, female DIO C57BL/6J mice, p<0.05) of the same compound?
**A.** 50%

**Q.** And the OGTT diabetic state ([11]; optimum dose 7 mg/(kg d) DCP, female DIO mice)?
**A.** significantly improved

**Q.** And the T/C ([7]; DCP 23 mg/(kg d), 10×10^6 cells, 70-98 days of treatment)?
**A.** 25%

**Q.** What about the T/C ([7]; DCP 69 mg/(kg d), 10×10^6 cells, 70-98 days of treatment) of the same compound?
**A.** 50%

**Q.** With `CC(=O)O.CNC(=N)NCCC[C@H](N)C(=O)O` [L-NMMA monoacetate] as the compound, how does the “effect on DCP inhibition of intracellular mycobacterial growth” value (M. bovis BCG; added to DCP-treated infected human monocytes) read?
**A.** reversed the inhibitory effects of DCP on intracellular mycobacterial growth

**Q.** Which antitumor activity ([7]; pterin 21 mg/(kg day), nude mice) does the source give for `Nc1nc2nccnc2c(=O)[nH]1` [Pterin, pterin] here?
**A.** no antitumor activity

**Q.** Which “inhibition of liver HBV DNA” value (hepatitis B virus (HBV); ADV 10 mg/(kg day)) does the source give for `CC(C)(C)C(=O)OCOP(=O)(COCCn1cnc2c(N)ncnc21)OCOC(=O)C(C)(C)C` [adefovir dipivoxil] here?
**A.** ~83%
